From US5543415A, “Antidepressants” (Kyowa Hakko Kogyo Co., Ltd., priority 1992, dated 1996)

Each compound was assayed on ddY-strain male mice (assay: Acute Toxicity Test (minimum lethal dose, oral)). Conditions: seven days after administration.
Assay type: in vivo
Protocol: Test compounds were orally administered to groups of ddY-strain male mice weighing 20±1 g, each group consisting of three mice. Seven days after the administration, minimum lethal dose (MLD) of each compound was determined by observing the mortality.

SMILES | MLD (minimum lethal dose) [mg/kg]
CCn1c(=O)c2c(nc(/C=C/c3cc(OC)c(OC)cc3Br)n2C)n(CC)c1=O [Compound 118, (E)-8-(2-Bromo-4,5-dimethoxystyryl)-1,3-diethyl-7-methylxanthine] | > 100
CCn1c(=O)c2[nH]c(/C=C/c3cc(F)cc(F)c3)nc2n(CC)c1=O [Compound 155, (E)-8-(3,5-Difluorostyryl)-1,3-diethylxanthine] | > 100
CCn1c(=O)c2c(nc(/C=C/c3ccc(-c4ccccc4)cc3)n2C)n(CC)c1=O [Compound 171, (E)-1,3-Diethyl-7-methyl-8-(4-phenylstyryl)xanthine] | > 100
CCCn1c(=O)c2c(nc(/C=C/c3cccc(Cl)c3)n2C)n(CCC)c1=O [Compound 40, (E)-8-(3-Chlorostyryl)-7-methyl-1,3-dipropylxanthine] | > 300
COc1cc(C)c(/C=C/c2nc3c([nH]2)c(=O)n(C)c(=O)n3C)cc1C [Compound 101, (E)-8-(4-Methoxy-2,5-dimethylstyryl)theophylline] | > 100
CCOc1ccc(/C=C/c2nc3c([nH]2)c(=O)n(CC)c(=O)n3CC)cc1 [Compound 123, (E)-8-(4-Ethoxystyryl)-1,3-diethylxanthine] | > 100
COc1ccc(/C=C/c2nc3c(c(=O)n(C)c(=O)n3C)n2C)cc1Br [Compound 116, (E)-8-(3-Bromo-4-methoxystyryl)caffeine] | > 300
CCn1c(=O)c2c(nc(/C=C/c3ccc(OCOC)cc3)n2C)n(CC)c1=O [Compound 146, (E)-1,3-Diethyl-8-(4-methoxymethoxystyryl)-7-methylxanthine] | > 100
CCn1c(=O)c2[nH]c(/C=C/c3ccc(N(C)C)cc3)nc2n(CC)c1=O [Compound 169, (E)-8-[4-(N,N-Dimethylamino)styryl]-1,3-diethylxanthine] | > 100
CCCn1c(=O)c2c(nc(/C=C/c3ccc(OC)cc3OC)n2C)n(CCC)c1=O [Compound 26, (E)-8-(2,4-Dimethoxystyryl)-7-methyl-1,3-dipropylxanthine] | > 300
CCCn1c(=O)c2c(nc(/C=C/c3cc(C)c(OC)cc3C)n2C)n(CCC)c1=O [Compound 46, (E)-8-(4-Methoxy-2,5-dimethylstyryl)-7-methyl-1,3-dipropylxanthine] | > 300
CCCn1c(=O)c2c(nc(/C=C/c3cc(OC)c(OC)cc3OC)n2C)n(CCC)c1=O [Compound 24, (E)-7-Methyl-1,3-dipropyl-8-(2,4,5-trimethoxystyryl)xanthine] | > 300
CCCn1c(=O)c2nc(/C=C/c3cc(OC)c(OC)cc3OC)[nH]c2n(CCC)c1=O [Compound 23, (E)-1,3-Dipropyl-8-(2,4,5-trimethoxystyryl)xanthine] | > 300
CCCn1c(=O)c2c(nc(/C=C/c3ccc(OC)c(OC)c3)n2CC)n(CCC)c1=O [Compound 66, (E)-8-(3,4-Dimethoxystyryl)-7-ethyl-1,3-dipropylxanthine] | > 300
CCn1c(=O)c2c(nc(/C=C/c3ccccc3OC)n2C)n(CC)c1=O [Compound 158, (E)-1,3-Diethyl-8-(2-methoxystyryl)-7-methylxanthine] | > 100
CCCn1c(=O)c2[nH]c(/C=C/c3ccc4c(c3)OCCO4)nc2n(CCC)c1=O [Compound 17, (E)-8-[2-(1,4-Benzodioxan-6-yl)vinyl]-1,3-dipropylxanthine] | > 300
CCn1c(=O)c2[nH]c(/C=C/c3ccc4c(c3)OCO4)nc2n(CC)c1=O [Compound 87, (E)-1,3-Diethyl-8-(3,4-methylenedioxystyryl)xanthine] | > 300

SMILES | MLD (minimum lethal dose) [mg/kg]
CCCn1c(=O)c2[nH]c(/C=C/c3ccc(OC)c(OC)c3)nc2n(CCC)c1=S [Compound 71, (E)-8-(3,4-Dimethoxystyryl)-1,3-dipropyl-2-thioxanthine] | > 100
CCn1c(=O)c2c(nc(/C=C/c3ccc(OC)c(O)c3)n2C)n(CC)c1=O [Compound 183, (E)-1,3-Diethyl-8-(3-hydroxy-4-methoxystyryl)-7-methylxanthine] | > 100
CCCn1c(=O)c2c(nc(/C=C/c3cc(OC)cc(OC)c3)n2C)n(CCC)c1=O [Compound 34, (E)-8-(3,5-Dimethoxystyryl)-7-methyl-1,3-dipropylxanthine] | > 300
CCn1c(=O)c2[nH]c(/C=C/c3ccc(F)c(Cl)c3)nc2n(CC)c1=O [Compound 176, (E)-8-(3-Chloro-4-fluorostyryl)-1,3-diethylxanthine] | > 100
CCn1c(=O)c2[nH]c(/C=C/c3ccc(OC)c(Br)c3)nc2n(CC)c1=O [Compound 113, (E)-8-(3-Bromo-4-methoxystyryl)-1,3-diethylxanthine] | > 100
CCCCOc1ccc(/C=C/c2nc3c(c(=O)n(CCC)c(=O)n3CCC)n2C)cc1 [Compound 53, (E)-8-(4-Butoxystyryl)-7-methyl-1,3-dipropylxanthine] | > 300
CCCn1c(=O)c2[nH]c(/C=C/c3ccccc3Cl)nc2n(CCC)c1=O [Compound 41, (E)-8-(2-Chlorostyryl)-1,3-dipropylxanthine] | > 100
CCn1c(=O)c2[nH]c(/C=C/c3ccc(O)cc3)nc2n(CC)c1=O [Compound 193, (E)-1,3-Diethyl-8-(4-hydroxystyryl)xanthine] | > 100
CCCn1c(=O)c2[nH]c(/C=C/c3ccc(OC)c(Br)c3)nc2n(CCC)c1=O [Compound 56, (E)-8-(3-Bromo-4-methoxystyryl)-1,3-dipropylxanthine] | > 100
CCn1c(=O)c2[nH]c(/C(C)=C/c3ccccc3)nc2n(CC)c1=O [Compound 133, (E)-1,3-Diethyl-8-(α-methylstyryl)xanthine] | > 100
CCn1c(=O)c2[nH]c(/C=C/c3ccc(OC)cc3OC)nc2n(CC)c1=O [Compound 77, (E)-8-(2,4-Dimethoxystyryl)-1,3-diethylxanthine] | > 100
CCn1c(=O)c2[nH]c(/C=C/c3ccc(OC)c(F)c3)nc2n(CC)c1=O [Compound 172, (E)-1,3-Diethyl-8-(3-fluoro-4-methoxystyryl)xanthine] | > 100
CCCn1c(=O)c2c(nc(/C=C/c3ccc(OC)c(C)c3OC)n2C)n(CCC)c1=O [Compound 16, (E)-8-(2,4-Dimethoxy-3-methylstyryl)-7-methyl-1,3-dipropylxanthine] | > 300
CCn1c(=O)c2[nH]c(/C=C/c3cccc(C(F)(F)F)c3)nc2n(CC)c1=O [Compound 163, (E)-1,3-Diethyl-8-(3-trifluoromethylstyryl)xanthine] | > 100
CCCn1c(=O)c2[nH]c(/C=C/c3ccc(OC)c(C)c3C)nc2n(CCC)c1=O [Compound 13, (E)-8-(4-Methoxy-2,3-dimethylstyryl)-1,3-dipropylxanthine] | > 300
CCn1c(=O)c2[nH]c(/C=C/c3cc(C)ccc3C)nc2n(CC)c1=O [Compound 109, (E)-8-(2,5-Dimethylstyryl)-1,3-diethylxanthine] | > 300
